The record followed here is PMC6232110, “Two novel, putative mechanisms of action for citalopram-induced platelet inhibition” (Scientific Reports, 2018).

One assay has as its target T1, CalDAG-GEFI (Homo sapiens, UniProt Q7LDG7).
T1 construct: gene RASGRP2; recombinant 6xHis, C-terminal truncation p.(Ala552_Leu609del); with Rap1B
As to the kind of experiment: BODIPY-FL-GDP fluorescence nucleotide exchange assay with purified recombinant CalDAG-GEFI and Rap1B. It counts as biochemical. An excerpt: BODIPY-FL-GDP fluorescence nucleotide exchange assay with purified recombinant CalDAG-GEFI and Rap1B on CalDAG-GEFI | Citalopram inhibited CalDAG-GEFI-mediated BODIPY-FL-GDP exchange onto Rap1B in a concentration-dependent manner

The target in another assay is T2, glycoprotein VI (GPVI) (Homo sapiens, UniProt Q9HCN6).
T2 construct: gene GP6; native GPVI on washed human platelets; with FcRγ chain
T2 sequence (Q9HCN6 21-339): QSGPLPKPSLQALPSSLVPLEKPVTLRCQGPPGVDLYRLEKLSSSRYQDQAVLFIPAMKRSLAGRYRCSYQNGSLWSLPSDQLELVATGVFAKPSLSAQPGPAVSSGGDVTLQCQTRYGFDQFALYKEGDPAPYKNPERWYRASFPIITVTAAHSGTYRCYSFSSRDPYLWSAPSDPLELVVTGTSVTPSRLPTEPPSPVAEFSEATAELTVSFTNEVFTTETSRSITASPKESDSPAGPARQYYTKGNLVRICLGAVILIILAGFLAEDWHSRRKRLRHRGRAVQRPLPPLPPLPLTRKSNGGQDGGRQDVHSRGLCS
T2 sequence (P30273 19-86 partner): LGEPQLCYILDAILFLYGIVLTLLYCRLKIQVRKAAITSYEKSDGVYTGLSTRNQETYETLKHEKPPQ
As to the kind of experiment: Schild analysis of CRPXL-induced platelet aggregation; inhibition of anti-GPVI antibody binding by flow cytometry. It counts as cell-based. The note with it: platelets; read-out: Kd. (Flow cytometry measures light scatter and fluorescence of single cells or particles in a stream.)

T1 sequence (P61224 1-167): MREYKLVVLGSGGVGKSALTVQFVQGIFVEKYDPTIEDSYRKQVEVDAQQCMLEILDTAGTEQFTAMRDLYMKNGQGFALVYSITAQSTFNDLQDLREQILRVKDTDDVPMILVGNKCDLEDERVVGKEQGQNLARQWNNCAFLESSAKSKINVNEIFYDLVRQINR
T1 sequence (Q7LDG7 1-551): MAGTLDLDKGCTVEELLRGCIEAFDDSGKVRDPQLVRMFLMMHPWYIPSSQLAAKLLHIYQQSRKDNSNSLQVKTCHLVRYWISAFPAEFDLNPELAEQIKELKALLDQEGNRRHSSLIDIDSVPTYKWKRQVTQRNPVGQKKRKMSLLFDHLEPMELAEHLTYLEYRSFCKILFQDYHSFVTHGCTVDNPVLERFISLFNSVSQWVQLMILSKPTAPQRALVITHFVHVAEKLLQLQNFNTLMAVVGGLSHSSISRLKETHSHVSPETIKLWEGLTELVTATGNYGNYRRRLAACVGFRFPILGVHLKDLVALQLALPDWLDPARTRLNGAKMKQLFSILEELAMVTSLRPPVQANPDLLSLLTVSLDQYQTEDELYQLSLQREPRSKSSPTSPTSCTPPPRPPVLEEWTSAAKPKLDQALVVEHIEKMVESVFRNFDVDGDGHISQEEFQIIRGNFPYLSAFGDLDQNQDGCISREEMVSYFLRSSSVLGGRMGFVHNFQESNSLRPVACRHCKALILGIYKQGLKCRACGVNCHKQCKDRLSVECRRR

For the compound `CN(C)CCCC1(c2ccc(F)cc2)OCc2cc(C#N)ccc21` (racemic) [citalopram], the IC50 (as a rule, the midpoint of a concentration-inhibition curve) at CalDAG-GEFI is 214 µM. Further, the Kb on glycoprotein VI (GPVI) is around 16 µM.
